According to patent publication US20250163056A1, “NONMUSCLE MYOSIN II INHIBITORS” (The University of Florida Research Foundation, Inc., priority 2018, published 2025):
Where two headings read alike, the source gives them in different places.

How the values were obtained:
[1] = test system: rodent behaviors; details: systemically administered
[2] = test system: hiPS cardiomyocytes (Cor.4U CMs); assay: Cardiac safety assay 1: beating parameters of cardiomyocytes (xCELLigence RTCA Cardio); type: cell-based, human; details: hiPS-derived cardiomyocytes
Method: The spontaneous contractions of cardiomyocytes (CMs) is measured label-free in real time using the ACEA xCELLigence RTCA Cardio instrument. All measurements are performed at 37° C. in a cell culture incubator, allowing for spontaneous beating of CMs at physiological conditions. Cor.4U CMs are seeded at 3×10^4 cells/well in 180 μl/well maintenance medium. Prior to seeding, a background impedance measurement (plate plus medium) is performed. The contraction of CMs involves cyclic modulation of cell morphology and adhesion inducing a delta change in impedance. From the cyclic changes in impedance a beating frequency, amplitude and effects on beating pattern can be calculated. Time point “0” (baseline) is recorded 10× for 20 seconds at 1 minute intervals. Thereafter, compounds and control (0.1% DMSO) are added to the wells and effects are measured 30 minutes later. Vehicle control is 0.1% DMSO and positive control is 100 nM isoproterenol. Compounds are tested at 0.1, 0.3, 1.0 and 3.0 uM. Data is collected at 5, 10, 15, 20 and 30 minutes, and 1, 4, 6, 12 and 24 hours post-incubation.

[3] = biological target: nonmuscle myosin II (Chlorocebus sabaeus, UniProt A0A0D9RDH4); assay: Cytokinesis cell-based assay of nonmuscle myosin II function in COS7 cells; details: read-out: NMII EC50
Sequence of nonmuscle myosin II (A0A0D9RDH4 1-1976): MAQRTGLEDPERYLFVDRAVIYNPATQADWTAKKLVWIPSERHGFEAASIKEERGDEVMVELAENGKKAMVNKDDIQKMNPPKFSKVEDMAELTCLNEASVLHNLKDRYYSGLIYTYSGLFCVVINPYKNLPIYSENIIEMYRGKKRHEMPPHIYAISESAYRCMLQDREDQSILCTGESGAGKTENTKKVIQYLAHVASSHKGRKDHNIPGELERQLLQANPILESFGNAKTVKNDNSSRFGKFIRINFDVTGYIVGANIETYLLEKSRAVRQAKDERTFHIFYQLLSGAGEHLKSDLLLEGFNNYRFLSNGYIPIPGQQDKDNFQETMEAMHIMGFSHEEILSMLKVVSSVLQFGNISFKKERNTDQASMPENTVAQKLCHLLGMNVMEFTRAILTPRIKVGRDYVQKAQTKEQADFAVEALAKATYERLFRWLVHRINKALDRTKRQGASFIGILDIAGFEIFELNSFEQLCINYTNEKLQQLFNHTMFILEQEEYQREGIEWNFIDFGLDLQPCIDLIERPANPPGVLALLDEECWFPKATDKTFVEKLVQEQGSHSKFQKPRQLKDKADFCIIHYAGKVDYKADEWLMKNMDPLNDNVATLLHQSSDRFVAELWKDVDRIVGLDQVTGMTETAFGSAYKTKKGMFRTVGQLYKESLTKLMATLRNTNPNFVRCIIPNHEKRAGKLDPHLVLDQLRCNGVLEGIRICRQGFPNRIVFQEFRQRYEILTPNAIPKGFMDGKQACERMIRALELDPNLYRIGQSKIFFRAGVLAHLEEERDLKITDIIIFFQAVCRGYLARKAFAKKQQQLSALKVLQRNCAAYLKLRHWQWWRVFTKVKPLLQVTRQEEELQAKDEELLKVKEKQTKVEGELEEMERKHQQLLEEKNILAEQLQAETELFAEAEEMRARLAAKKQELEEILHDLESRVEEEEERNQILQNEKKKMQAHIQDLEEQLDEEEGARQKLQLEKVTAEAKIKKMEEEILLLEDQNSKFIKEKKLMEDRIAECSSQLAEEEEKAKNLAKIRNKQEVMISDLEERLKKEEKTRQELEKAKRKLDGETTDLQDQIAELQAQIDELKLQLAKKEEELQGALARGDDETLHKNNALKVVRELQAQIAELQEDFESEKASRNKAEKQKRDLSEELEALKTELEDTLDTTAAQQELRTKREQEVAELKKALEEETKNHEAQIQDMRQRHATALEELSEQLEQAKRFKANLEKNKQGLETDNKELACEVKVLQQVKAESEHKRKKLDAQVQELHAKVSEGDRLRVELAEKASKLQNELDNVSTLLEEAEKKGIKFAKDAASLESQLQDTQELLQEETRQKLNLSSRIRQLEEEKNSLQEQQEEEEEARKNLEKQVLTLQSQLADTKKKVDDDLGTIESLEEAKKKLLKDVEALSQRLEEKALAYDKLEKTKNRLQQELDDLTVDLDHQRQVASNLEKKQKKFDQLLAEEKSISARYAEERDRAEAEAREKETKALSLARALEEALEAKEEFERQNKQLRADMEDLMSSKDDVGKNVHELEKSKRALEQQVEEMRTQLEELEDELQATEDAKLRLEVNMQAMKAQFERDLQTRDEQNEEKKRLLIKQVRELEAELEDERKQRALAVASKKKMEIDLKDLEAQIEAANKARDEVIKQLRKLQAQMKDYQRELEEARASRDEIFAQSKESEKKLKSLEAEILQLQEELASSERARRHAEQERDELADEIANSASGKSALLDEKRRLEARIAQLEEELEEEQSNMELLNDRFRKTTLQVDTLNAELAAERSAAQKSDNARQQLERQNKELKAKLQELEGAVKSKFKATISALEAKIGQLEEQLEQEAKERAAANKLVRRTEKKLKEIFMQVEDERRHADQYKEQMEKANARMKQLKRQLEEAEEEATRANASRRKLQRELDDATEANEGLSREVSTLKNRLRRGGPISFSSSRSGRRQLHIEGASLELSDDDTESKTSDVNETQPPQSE
Method: Cytokinesis is a cell-based assay to assess nonmuscle myosin II function, performed using COS7 cells. The assay is run in a 96 well plate, with 2,000 cells plated per well. Total incubation time is 48 hours, with 24 hours of treatment with the compound of interest. Prior to treatment with small molecules, a two-fold dilution series of compound solutions is prepared in DMSO. Starting concentrations are determined based on compound solubility. Compound solutions are further diluted in DMEM medium to a final DMSO concentration of 2% (50-fold dilution). Subsequently, 100 μl diluted solution is transferred to each well of the plate containing 100 μl of cell culture (achieving 1% final DMSO concentration). All measurements are carried out in triplicate. Cells are stained by fluorescein diacetate (6 μM), a cell viability dye, the cell-permeant Hoescht33342 (10 μM) and the membrane-impermeant propidium iodide (4 μM) to label all nuclei and those belonging to dead cells, respectively. Dye solutions are replaced by fresh media after 10 minutes of incubation. An INCell Analyzer 6000 is used for imaging. […] Cytotoxicity is also assayed and quantified as the ratio of dead nuclei to total nuclei. […] Half maximal effective concentration (EC50) is determined by fitting the 6-point dose-response data to the Hill equation.

[4] = biological target: Bovine cardiac myosin (Bos taurus (Bovine), UniProt Q9BE39); assay: Cardiac muscle myosin II actin-activated ATPase assay (NADH-coupled); type: biochemical; details: for CMMII/NMII Ratio: cardiac Ki relative to NMII EC50; for Ratio CMMII:NMII Ki/EC50: cardiac myosin II Ki over nonmuscle myosin II EC50
Sequence of Bovine cardiac myosin (Q9BE39 whole entry): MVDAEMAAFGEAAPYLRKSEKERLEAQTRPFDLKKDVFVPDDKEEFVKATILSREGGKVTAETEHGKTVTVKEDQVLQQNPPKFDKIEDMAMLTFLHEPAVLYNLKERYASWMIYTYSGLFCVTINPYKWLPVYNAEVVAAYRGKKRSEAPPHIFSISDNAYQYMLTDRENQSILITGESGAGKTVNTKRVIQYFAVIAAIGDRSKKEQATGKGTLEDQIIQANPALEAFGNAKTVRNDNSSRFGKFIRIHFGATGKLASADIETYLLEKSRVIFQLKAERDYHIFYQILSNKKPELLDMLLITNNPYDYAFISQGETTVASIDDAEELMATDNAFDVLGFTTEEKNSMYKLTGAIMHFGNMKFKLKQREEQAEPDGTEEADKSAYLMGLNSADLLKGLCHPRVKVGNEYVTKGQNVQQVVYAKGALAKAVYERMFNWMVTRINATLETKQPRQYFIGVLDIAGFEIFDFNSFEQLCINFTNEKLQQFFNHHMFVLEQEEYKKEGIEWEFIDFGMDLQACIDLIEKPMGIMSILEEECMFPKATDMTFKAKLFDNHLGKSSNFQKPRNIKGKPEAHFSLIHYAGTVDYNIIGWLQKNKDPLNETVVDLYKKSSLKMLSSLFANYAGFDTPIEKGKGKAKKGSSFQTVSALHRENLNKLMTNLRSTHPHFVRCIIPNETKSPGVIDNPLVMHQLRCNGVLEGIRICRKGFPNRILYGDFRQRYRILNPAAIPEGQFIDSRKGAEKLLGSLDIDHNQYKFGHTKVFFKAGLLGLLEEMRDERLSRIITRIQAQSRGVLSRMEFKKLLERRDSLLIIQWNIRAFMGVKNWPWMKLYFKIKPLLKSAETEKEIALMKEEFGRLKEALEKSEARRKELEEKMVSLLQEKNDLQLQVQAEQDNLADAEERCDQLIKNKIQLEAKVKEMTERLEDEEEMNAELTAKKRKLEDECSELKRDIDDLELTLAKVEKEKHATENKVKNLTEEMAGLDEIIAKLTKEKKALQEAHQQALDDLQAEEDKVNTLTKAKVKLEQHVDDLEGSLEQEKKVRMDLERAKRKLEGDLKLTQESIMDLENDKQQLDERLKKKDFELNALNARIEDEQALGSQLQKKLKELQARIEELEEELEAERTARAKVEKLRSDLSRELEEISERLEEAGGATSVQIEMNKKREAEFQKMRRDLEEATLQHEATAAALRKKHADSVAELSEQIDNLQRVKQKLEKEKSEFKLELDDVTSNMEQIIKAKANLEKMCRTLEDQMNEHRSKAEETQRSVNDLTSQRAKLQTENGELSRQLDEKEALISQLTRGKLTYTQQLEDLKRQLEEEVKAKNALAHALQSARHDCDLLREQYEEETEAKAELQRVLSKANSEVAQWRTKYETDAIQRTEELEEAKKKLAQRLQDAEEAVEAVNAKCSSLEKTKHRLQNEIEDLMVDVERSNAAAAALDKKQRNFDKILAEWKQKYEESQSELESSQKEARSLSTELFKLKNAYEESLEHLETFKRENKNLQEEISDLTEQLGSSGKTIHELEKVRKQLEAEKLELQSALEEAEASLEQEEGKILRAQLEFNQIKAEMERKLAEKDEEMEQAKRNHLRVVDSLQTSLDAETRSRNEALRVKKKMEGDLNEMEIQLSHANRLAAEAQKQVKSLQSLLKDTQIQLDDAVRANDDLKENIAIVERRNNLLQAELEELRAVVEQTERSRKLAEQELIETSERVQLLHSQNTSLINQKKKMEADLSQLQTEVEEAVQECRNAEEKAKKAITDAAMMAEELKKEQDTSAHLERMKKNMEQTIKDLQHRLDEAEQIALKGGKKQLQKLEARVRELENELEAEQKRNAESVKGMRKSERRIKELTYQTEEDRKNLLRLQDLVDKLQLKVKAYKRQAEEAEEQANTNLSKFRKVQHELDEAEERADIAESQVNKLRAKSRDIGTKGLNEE
Sequence of Bovine cardiac myosin (P85100 whole entry partner): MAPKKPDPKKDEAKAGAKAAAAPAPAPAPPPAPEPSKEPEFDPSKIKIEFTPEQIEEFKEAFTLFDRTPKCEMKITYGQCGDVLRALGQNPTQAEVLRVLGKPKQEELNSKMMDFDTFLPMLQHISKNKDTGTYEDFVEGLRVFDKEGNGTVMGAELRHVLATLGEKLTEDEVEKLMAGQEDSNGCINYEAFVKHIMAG
Sequence of Bovine cardiac myosin (Q3SZE5 whole entry partner): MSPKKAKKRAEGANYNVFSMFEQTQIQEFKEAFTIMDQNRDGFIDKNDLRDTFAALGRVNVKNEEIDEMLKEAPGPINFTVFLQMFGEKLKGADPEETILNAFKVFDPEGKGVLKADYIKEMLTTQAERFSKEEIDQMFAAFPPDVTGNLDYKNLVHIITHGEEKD
Summary of the method: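 NADH-coupled (PK/LDH) assay at 25° C: 300 nM bovine cardiac myosin, 10 μM rabbit F-actin, 1 mM ATP, 1 mM PEP, 220 μM NADH, MOPS pH 7.0, 0.5% DMSO. NADH fluorescence was followed for 30 min; Ki values came from 16-point triplicate data (top 50 uM) fitted to a quadratic one-to-one binding model.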

[5] = Photostability, percentage remaining undegraded under illumination or in the dark; details: for Photostability 4 hours: percentage remaining undegraded after 4 hours illumination; for Photostability 24 hours: percentage remaining undegraded after 24 hours illumination; for Photostability Dark (24 h): percentage remaining undegraded in the dark
[6] = biological target: Rabbit skeletal myosin; assay: Skeletal muscle myosin II actin-activated ATPase assay; type: biochemical; details: 20 nM skeletal muscle myosin II; read-out: SKMMII KI
Summary of the method: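 NADH-coupled (PK/LDH) actin-activated ATPase at 25 °C with 20 nM rabbit skeletal myosin II, 10 μM F-actin, 1 mM ATP, 1 mM PEP, 220 μM NADH in MOPS pH 7.0, MgCl2, EGTA, BSA, DTT, 0.5% DMSO. NADH fluorescence followed 30 min; inhibitory constants from 16-point triplicate curves (top 50 uM), quadratic one-to-one fit.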

[7] = cardiac muscle myosin II, read-out: CMMII Ki
[8] = 300 nM cardiac myosin, 10 μM actin, 25° C., read-out: CMMII KI

SMILES | effect in a broad panel of rodent behaviors [1] | Change in amplitude at 1 uM @ 15 min [2] | EC50 [3] [µM] | CMMII/NMII Ratio [4] | Ki [4, 7] [µM] | Photostability 4 hours [5] [%] | Photostability 24 hours [5] [%] | Photostability Dark (24 h) [5] [%] | Qualitative impact on contractility (e.g. Full = Complete inhibition of contraction) ([2]; 0.1 uM-1.0 uM) | Qualitative impact on contractility (e.g. Full = Complete inhibition of contraction) ([2]; 3.0 uM) | Ki [6] [µM] | Ki [4, 8] [µM] | Ratio CMMII:NMII Ki/EC50 [4] | Photostability 4 hours (4 h) [%] | Photostability 24 hours (24 h) [%] | Photostability Dark (24 h) [%]
Cc1ccc2c(c1)C(=O)C1(O)CCN(c3ccccc3)C1=N2 (racemic) [racemic Blebb] | no effect |  |  |  |  |  |  |  |  |  |  |  |  |  |  | 
O=C1c2cc(Cl)ccc2N=C2N(c3ccccc3)CC[C@@]12O [BPN-0025002] |  | −38.9 ± 2.4% | 2.6 | 0.76 | 1.97 |  |  |  |  |  |  |  |  |  |  | 
Cc1ccc2c(c1)C(=O)[C@]1(O)CCN(c3cccc(Cl)c3)C1=N2 [BPN-0025059] |  | +1.1 ± 0.1% |  | 9.25 | 47.2 | 96.1 | 48.6 | >99 | 0.1 uM-1.0 uM: No effect; 3.0 uM: | Small effect | 22 | 120 | 23.5 |  |  | 
Cc1cccc(N2CC[C@@]3(O)C(=O)c4cc(C)ccc4N=C23)c1 [BPN-0025100] |  | −7.8 ± 1.3% |  | 3.51 | 26.3 | 82.8 | 4.7 | 99.0 | 0.1 uM-1.0 uM: No effect; 3.0 uM: | Small effect | 9.7 | 48 | 6.4 |  |  | 
Cc1cc(N2CC[C@@]3(O)C(=O)c4c(sc(C)c4C)NC23)ccc1C#N (stereo partly drawn) [BPN-0026886] |  |  |  |  |  |  |  |  |  |  | 4.2 | 19 | 7.0 | >99 | 98.5 | >99
